Laboratory results taken from patent US9029337B2, “Modulation of factor 7 expression” (Isis Pharmaceuticals, Inc., priority 2007, dated 2015).
Strand notation (5' to 3'): a small letter for the sugar, then the base; units joined by * are phosphorothioate-linked, units joined directly phosphodiester-linked; [ ] holds rarer units or linkages, { } end groups; capitals alone tell only the bases. e = 2'-O-(2-methoxyethyl) (MOE); [5mC] = 5-methylcytosine; d = 2'-deoxy (DNA)

system: human Factor 7 mRNA; experiment: Antisense inhibition of human Factor 7 with short (14-mer) oligonucleotides in HepB3 cells, electroporation 1,000 nM; type: cell-based; details: electroporation, 1,000 nM antisense oligonucleotide, approximately 24 hours, Factor 7 mRNA relative to untreated control cells
Procedure, shortened: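 14-mer 2-10-2 MOE gapmers (full phosphorothioate, 5-methyl-C) electroporated at 1,000 nM into HepB3 cells at 20,000 cells/well. After ~24 h, Factor 7 mRNA by real-time RT-PCR, normalized to RiboGreen total RNA. Reported as % inhibition relative to untreated cells.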

Substance | % Inhibition
435786 (antisense eA*eG*dG*dT*dG*dA*d[5mC]*d[5mC]*d[5mC]*dG*dT*dG*eA*eG) [compound 435786] | 68%
435787 (antisense eG*eA*dG*dT*dG*dT*dG*dA*dG*dG*d[5mC]*dT*eT*e[5mC]) [compound 435787] | 34%
435788 (antisense e[5mC]*e[5mC]*dT*dG*dT*dG*dA*dG*dT*dG*dT*dG*eA*eG) [compound 435788] | 20%
435789 (antisense e[5mC]*eA*dT*dG*dT*dT*dA*dG*d[5mC]*d[5mC]*dT*dT*eT*eG) [compound 435789] | 3%
435790 (antisense eA*eT*dG*dA*d[5mC]*d[5mC]*dA*dT*d[5mC]*d[5mC]*dT*d[5mC]*eA*eA) [compound 435790] | 1%
435791 (antisense eA*eT*dG*dA*dG*dA*dA*dA*dT*dG*d[5mC]*dT*eT*eT) [compound 435791] | 0%
435792 (antisense eT*eG*d[5mC]*dT*dG*dA*dA*dG*dA*dA*dA*d[5mC]*eT*eG) [compound 435792] | 9%
435793 (antisense eT*eG*d[5mC]*dA*dG*dT*dA*dG*d[5mC]*dA*dG*dA*eT*eG) [compound 435793] | 27%
435794 (antisense eG*eA*dG*dG*dT*dA*d[5mC]*dA*d[5mC]*dA*dG*dG*e[5mC]*eT) [compound 435794] | 26%
435795 (antisense eA*e[5mC]*dA*d[5mC]*d[5mC]*d[5mC]*dG*dA*dG*dG*dT*dT*e[5mC]*eA) [compound 435795] | 66%
435796 (antisense eT*eG*dA*d[5mC]*d[5mC]*dA*d[5mC]*dA*d[5mC]*dA*dT*dT*eT*e[5mC]) [compound 435796] | 30%
435797 (antisense eA*eA*dT*d[5mC]*dT*dT*dG*dG*d[5mC]*d[5mC]*d[5mC]*d[5mC]*eT*e[5mC]) [compound 435797] | 16%
435798 (antisense eA*eG*d[5mC]*d[5mC]*dA*dG*dA*d[5mC]*dT*dT*dT*d[5mC]*e[5mC]*eT) [compound 435798] | 54%
435799 (antisense e[5mC]*eT*dG*dG*dT*d[5mC]*d[5mC]*d[5mC]*d[5mC]*dA*dT*d[5mC]*eT*eG) [compound 435799] | 33%
435800 (antisense eG*eG*dA*d[5mC]*d[5mC]*d[5mC]*dA*dA*dA*dG*dT*dG*eG*eG) [compound 435800] | 0%
435801 (antisense e[5mC]*eG*dG*dT*dT*dG*dG*d[5mC]*d[5mC]*dA*dG*dG*e[5mC]*e[5mC]) [compound 435801] | 38%
435802 (antisense eG*eT*d[5mC]*dA*d[5mC]*d[5mC]*dT*dA*dG*dA*d[5mC]*d[5mC]*eA*eA) [compound 435802] | 61%
435803 (antisense eG*eA*dG*dA*dA*dT*dT*dG*d[5mC]*d[5mC]*d[5mC]*dA*eG*eG) [compound 435803] | 0%
435804 (antisense e[5mC]*eA*dG*dG*dG*dA*d[5mC]*dT*d[5mC]*dT*d[5mC]*dA*eG*e[5mC]) [compound 435804] | 26%
435805 (antisense eT*eG*dA*dA*dT*dT*dA*d[5mC]*dT*dG*dA*dA*e[5mC]*e[5mC]) [compound 435805] | 0%
435806 (antisense eT*eG*dA*d[5mC]*d[5mC]*d[5mC]*d[5mC]*dA*d[5mC]*dA*dG*dG*eG*eA) [compound 435806] | 7%
435807 (antisense e[5mC]*eA*dG*dT*dA*d[5mC]*dT*dT*d[5mC]*d[5mC]*d[5mC]*dA*e[5mC]*eG) [compound 435807] | 35%
435808 (antisense e[5mC]*eT*d[5mC]*dT*dG*dG*dA*d[5mC]*dA*d[5mC]*d[5mC]*dG*eG*eG) [compound 435808] | 66%
435809 (antisense e[5mC]*eT*dG*dA*d[5mC]*dA*dA*dT*dG*dT*dG*dA*eT*eG) [compound 435809] | 5%
435810 (antisense e[5mC]*eT*dG*dA*dG*dG*dG*dA*dA*dT*dG*dT*eT*eG) [compound 435810] | 1%
435811 (antisense eG*eT*dG*dG*dT*d[5mC]*dA*dA*dG*dG*dA*dT*eG*eA) [compound 435811] | 27%
435812 (antisense eG*e[5mC]*dT*dG*dA*dG*d[5mC]*dA*dG*dA*dG*dA*eT*e[5mC]) [compound 435812] | 35%
435813 (antisense eG*eG*dA*dT*dG*d[5mC]*dA*d[5mC]*dA*d[5mC]*d[5mC]*dA*eG*eG) [compound 435813] | 55%

Substance | % Inhibition
435814 (antisense eT*eG*dA*d[5mC]*dG*dA*dG*dA*dG*dG*dA*d[5mC]*e[5mC]*eA) [compound 435814] | 31%
435815 (antisense e[5mC]*eT*d[5mC]*dT*dT*d[5mC]*d[5mC]*dG*dA*dG*d[5mC]*dA*eG*e[5mC]) [compound 435815] | 59%
435816 (antisense eT*e[5mC]*d[5mC]*dA*dA*dA*dG*dG*dA*d[5mC]*dA*dA*eG*eG) [compound 435816] | 4%
435817 (antisense e[5mC]*eT*dG*dA*dG*d[5mC]*dT*dT*dG*dG*d[5mC]*dA*e[5mC]*e[5mC]) [compound 435817] | 39%
435818 (antisense eG*eT*d[5mC]*dA*dT*d[5mC]*d[5mC]*dT*dT*dG*dT*d[5mC]*eT*eG) [compound 435818] | 43%
435819 (antisense eT*eT*dT*dG*dT*d[5mC]*d[5mC]*dA*dG*dT*dA*dA*eG*eA) [compound 435819] | 1%
435820 (antisense e[5mC]*eA*dT*d[5mC]*d[5mC]*dT*dA*dG*dT*d[5mC]*dA*d[5mC]*eT*eG) [compound 435820] | 19%
435821 (antisense eA*eG*dT*d[5mC]*dA*dG*dT*dA*d[5mC]*dA*dG*dA*e[5mC]*eA) [compound 435821] | 0%
435822 (antisense e[5mC]*e[5mC]*dA*dG*dG*dA*dG*d[5mC]*d[5mC]*dT*dT*dT*eA*e[5mC]) [compound 435822] | 37%
435823 (antisense eT*eG*dA*dG*dT*d[5mC]*d[5mC]*d[5mC]*dA*dG*dG*d[5mC]*eT*eG) [compound 435823] | 41%
435824 (antisense e[5mC]*e[5mC]*dT*dA*dA*dA*dG*dA*dT*dG*dA*dA*eT*e[5mC]) [compound 435824] | 21%
435825 (antisense e[5mC]*eT*dG*dG*dT*dT*dT*dT*dG*dG*dA*dG*eG*eA) [compound 435825] | 0%
435826 (antisense eA*eA*dG*dT*dG*dG*d[5mC]*dT*dG*dG*d[5mC]*dT*eG*eA) [compound 435826] | 27%
435827 (antisense eT*e[5mC]*dA*dG*dA*dA*dA*dG*dA*dT*dG*d[5mC]*eA*eG) [compound 435827] | 5%
435828 (antisense eG*eA*d[5mC]*d[5mC]*dT*dG*d[5mC]*d[5mC]*d[5mC]*dA*dT*dT*eT*eT) [compound 435828] | 0%
435829 (antisense eG*eG*dG*dT*dA*dG*dA*d[5mC]*d[5mC]*d[5mC]*dT*d[5mC]*eA*eG) [compound 435829] | 18%
435830 (antisense eT*eG*dA*dT*dT*dT*dT*dG*d[5mC]*dA*dA*dA*eG*eA) [compound 435830] | 0%
435831 (antisense eG*eA*dT*d[5mC]*dT*dT*d[5mC]*dA*d[5mC]*dA*dT*dA*eG*e[5mC]) [compound 435831] | 51%
435832 (antisense eT*eG*d[5mC]*dT*d[5mC]*dA*dG*dA*d[5mC]*d[5mC]*dT*dG*eG*e[5mC]) [compound 435832] | 70%
435833 (antisense eA*eG*dA*d[5mC]*dA*d[5mC]*dT*dT*dG*dA*dG*dA*eG*e[5mC]) [compound 435833] | 24%
435834 (antisense eT*eG*dA*d[5mC]*dA*dG*d[5mC]*dA*d[5mC]*dG*dA*dA*eG*e[5mC]) [compound 435834] | 20%
435835 (antisense eT*eT*dA*dT*dT*dT*dG*dG*dG*d[5mC]*dA*dT*eG*eG) [compound 435835] | 7%
435836 (antisense e[5mC]*eT*dA*dG*dG*dT*d[5mC]*dT*dG*d[5mC]*dA*dG*eG*eG) [compound 435836] | 41%
435837 (antisense e[5mC]*eT*d[5mC]*dG*d[5mC]*d[5mC]*dT*dG*dG*dA*dA*dG*eG*eA) [compound 435837] | 37%
435838 (antisense eT*e[5mC]*d[5mC]*dA*dT*dG*dG*dA*d[5mC]*dA*d[5mC]*dT*eA*eA) [compound 435838] | 29%
435839 (antisense eG*eG*dT*d[5mC]*dA*dG*d[5mC]*dT*dG*dG*dT*d[5mC]*eT*eG) [compound 435839] | 14%
435840 (antisense eG*eG*dG*d[5mC]*d[5mC]*d[5mC]*dG*d[5mC]*d[5mC]*dA*d[5mC]*dT*eG*eG) [compound 435840] | 0%
